ChEMBL document CHEMBL4002586, “Aurone Mannich base derivatives as promising multifunctional agents with acetylcholinesterase inhibition, anti-β-amyloid aggragation and neuroprotective properties for the treatment of Alzheimer's disease” (Eur J Med Chem, 2017)
Active and inactive are the calls of the source. No cut-off for these calls is given here.

Assays:
[1] = target: T1, Acetylcholinesterase (Electrophorus electricus, UniProt O42275); experiment: Mixed-type inhibition of Electrophorus electricus AChE pretreated for 15 mins followed by varying levels of acetylthiocholine iodide substrate addition by Lineweaver-Burk plot analysis
T1 sequence (O42275 whole entry): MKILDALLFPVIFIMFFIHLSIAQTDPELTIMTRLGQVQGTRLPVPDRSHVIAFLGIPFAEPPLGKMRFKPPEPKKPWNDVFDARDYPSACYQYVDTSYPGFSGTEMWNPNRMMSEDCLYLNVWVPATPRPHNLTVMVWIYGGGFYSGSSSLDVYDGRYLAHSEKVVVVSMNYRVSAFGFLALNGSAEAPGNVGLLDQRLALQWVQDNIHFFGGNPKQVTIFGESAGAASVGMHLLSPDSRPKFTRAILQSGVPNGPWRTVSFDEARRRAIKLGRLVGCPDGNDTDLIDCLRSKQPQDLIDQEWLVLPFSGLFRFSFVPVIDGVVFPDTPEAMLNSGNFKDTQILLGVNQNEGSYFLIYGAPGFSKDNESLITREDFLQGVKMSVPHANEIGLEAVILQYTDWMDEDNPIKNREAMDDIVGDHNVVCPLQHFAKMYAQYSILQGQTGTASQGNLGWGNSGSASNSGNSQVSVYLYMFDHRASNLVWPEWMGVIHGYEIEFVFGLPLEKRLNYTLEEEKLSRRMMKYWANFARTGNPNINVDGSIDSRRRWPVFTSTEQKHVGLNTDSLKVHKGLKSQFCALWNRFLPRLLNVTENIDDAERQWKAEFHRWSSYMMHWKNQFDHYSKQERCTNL

[2] = Metal chelating activity assessed as compound-Al3+ complex formation at 37.5 uM in presence of AlCl3 after 30 mins by UV-visible spectrophotometric analysis; type: functional
[3] = Metal chelating activity assessed as compound-Zn2+ complex formation at 37.5 uM in presence of ZnCl2 after 30 mins by UV-visible spectrophotometric analysis; type: functional
[4] = Antioxidant activity assessed as inhibition of AAPH-induced peroxyl radical generation at 5 uM measured as trolox equivalent preincubated for 15 mins followed by AAPH addition measured every 60 secs for 90 mins by ORAC-FL assay; type: functional
[5] = Permeability of compound at 100 ug/ml after 18 hrs by PAMPA; type: physicochemical; conditions: read-out: permeability
[6] = system: PC-12; experiment: Cytotoxicity against rat PC12 cells at <50 uM measured after 48 hrs by MTT assay; type: cell-based; conditions: pc-12, 48 h
[7] = system: PC-12; experiment: Neuroprotective activity against H2O2-induced damage in rat PC12 cells assessed as reduction in LDH release at 0.1 to 50 uM pretreated for 2 hrs followed by H2O2 challenge measured after 24 hrs; type: functional, cell-based
[8] = Metal chelating activity assessed as compound-Cu2+ complex formation at 37.5 uM in presence of CuCl2 after 30 mins by UV-visible spectrophotometric analysis; type: functional
[9] = target: T2, Amine oxidase [flavin-containing] B (Homo sapiens, UniProt P27338); experiment: Inhibition of recombinant human MAO-B expressed in baculovirus infected BTI insect cells at 10 uM using kynuramine as substrate incubated for 30 mins by fluorescence assay relative to control; conditions: 0.5 h
T2 sequence (P27338 whole entry): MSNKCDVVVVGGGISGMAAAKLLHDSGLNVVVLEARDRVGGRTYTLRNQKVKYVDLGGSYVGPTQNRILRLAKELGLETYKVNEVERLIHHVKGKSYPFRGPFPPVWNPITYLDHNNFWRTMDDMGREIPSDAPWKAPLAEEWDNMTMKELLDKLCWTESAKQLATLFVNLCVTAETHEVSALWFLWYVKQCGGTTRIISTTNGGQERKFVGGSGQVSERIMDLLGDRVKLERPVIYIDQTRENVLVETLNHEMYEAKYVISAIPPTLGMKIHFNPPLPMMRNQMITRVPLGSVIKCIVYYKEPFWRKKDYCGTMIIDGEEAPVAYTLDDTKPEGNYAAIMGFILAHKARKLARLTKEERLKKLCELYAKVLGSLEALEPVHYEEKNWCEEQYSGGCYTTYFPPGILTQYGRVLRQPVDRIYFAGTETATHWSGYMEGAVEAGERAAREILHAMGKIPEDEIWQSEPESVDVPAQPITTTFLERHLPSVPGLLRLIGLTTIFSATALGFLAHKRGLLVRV

[10] = system: PC-12; experiment: Neuroprotective activity against H2O2-induced damage in rat PC12 cells assessed as increase in cell viability at 1 to 50 uM pretreated for 2 hrs followed by H2O2 challenge measured after 24 hrs by MTT assay; type: functional, cell-based
[11] = target: Amyloid-beta precursor protein (Homo sapiens) (UniProt P05067); experiment: Inhibition of self-induced aggregation of HFIP-treated human amyloid beta (1 to 42 residues) at 25 uM after 24 hrs by thioflavin T-based fluorometric assay relative to control
Chain of Amyloid-beta precursor protein (Homo sapiens) (P05067 whole entry, the tested form may be a part): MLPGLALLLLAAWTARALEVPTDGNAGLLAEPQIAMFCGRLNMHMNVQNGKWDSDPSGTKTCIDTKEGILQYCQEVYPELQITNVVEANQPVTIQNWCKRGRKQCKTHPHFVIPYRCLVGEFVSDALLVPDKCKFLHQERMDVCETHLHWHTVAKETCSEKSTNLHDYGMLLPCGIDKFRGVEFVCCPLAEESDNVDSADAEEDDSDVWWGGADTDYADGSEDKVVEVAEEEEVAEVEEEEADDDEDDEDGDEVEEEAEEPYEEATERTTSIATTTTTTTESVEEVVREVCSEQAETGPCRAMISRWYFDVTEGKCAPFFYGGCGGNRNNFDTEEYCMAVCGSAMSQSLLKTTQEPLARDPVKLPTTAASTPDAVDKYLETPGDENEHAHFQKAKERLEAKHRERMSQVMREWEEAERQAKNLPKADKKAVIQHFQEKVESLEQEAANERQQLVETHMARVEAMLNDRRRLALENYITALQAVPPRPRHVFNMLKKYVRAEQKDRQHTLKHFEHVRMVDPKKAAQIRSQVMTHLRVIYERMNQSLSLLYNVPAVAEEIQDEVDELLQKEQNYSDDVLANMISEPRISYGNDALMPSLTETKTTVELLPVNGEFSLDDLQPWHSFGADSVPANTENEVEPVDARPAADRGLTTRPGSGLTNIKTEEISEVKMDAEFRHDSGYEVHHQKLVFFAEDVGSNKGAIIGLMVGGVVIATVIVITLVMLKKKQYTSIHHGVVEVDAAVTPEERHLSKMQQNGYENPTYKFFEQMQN

[12] = target: T3, Acetylcholinesterase (Rattus norvegicus, UniProt P37136); experiment: Inhibition of AChE in rat brain cortex homogenates using acetylthiocholine iodide as substrate in presence of BuChE inhibitor tetraisopropyl pyrophosphoramide measured after 15 mins by Ellman's method
T3 sequence (P37136 whole entry): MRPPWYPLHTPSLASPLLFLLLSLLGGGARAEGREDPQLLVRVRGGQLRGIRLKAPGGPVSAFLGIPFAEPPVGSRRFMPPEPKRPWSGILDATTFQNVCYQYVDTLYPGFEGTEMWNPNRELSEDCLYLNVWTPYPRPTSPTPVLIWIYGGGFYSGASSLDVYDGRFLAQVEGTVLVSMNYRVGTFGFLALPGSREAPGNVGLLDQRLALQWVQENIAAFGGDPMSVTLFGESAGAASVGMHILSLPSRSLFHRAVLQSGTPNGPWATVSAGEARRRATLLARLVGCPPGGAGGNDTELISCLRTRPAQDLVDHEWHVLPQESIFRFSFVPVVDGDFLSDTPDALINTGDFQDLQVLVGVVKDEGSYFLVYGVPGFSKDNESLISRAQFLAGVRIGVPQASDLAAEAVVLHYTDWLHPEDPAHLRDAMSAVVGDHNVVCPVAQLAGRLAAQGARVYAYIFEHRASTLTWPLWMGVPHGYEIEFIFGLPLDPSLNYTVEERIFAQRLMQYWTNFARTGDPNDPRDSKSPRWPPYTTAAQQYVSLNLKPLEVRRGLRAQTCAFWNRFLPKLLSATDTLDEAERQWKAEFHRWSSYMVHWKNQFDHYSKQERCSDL

[13] = target: Acetylcholinesterase (Homo sapiens, UniProt P22303); experiment: Inhibition of human erythrocyte AChE using acetylthiocholine iodide as substrate measured after 15 mins by Ellman's method
Chain of Acetylcholinesterase (Homo sapiens, UniProt P22303) (P22303 whole entry, the tested form may be a part): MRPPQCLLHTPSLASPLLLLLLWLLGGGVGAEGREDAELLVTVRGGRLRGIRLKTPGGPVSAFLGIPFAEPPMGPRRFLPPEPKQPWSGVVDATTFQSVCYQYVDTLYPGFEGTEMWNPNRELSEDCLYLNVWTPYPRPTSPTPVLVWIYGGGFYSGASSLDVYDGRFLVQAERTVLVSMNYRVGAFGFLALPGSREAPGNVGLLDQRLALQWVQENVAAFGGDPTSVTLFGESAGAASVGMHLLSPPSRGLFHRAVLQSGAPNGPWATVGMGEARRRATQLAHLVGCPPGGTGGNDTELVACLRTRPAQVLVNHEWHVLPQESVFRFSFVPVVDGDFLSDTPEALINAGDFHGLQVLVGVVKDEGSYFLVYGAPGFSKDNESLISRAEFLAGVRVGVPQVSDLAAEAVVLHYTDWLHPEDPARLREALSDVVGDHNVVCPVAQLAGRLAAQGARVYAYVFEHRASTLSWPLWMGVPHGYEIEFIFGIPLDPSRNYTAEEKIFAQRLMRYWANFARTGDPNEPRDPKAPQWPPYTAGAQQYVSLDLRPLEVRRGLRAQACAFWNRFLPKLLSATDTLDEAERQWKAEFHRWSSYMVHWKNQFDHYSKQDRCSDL

[14] = Inhibition of Cu2+-mediated aggregation of human amyloid beta (1 to 42 residues) at 25 uM after 24 hrs by thioflavin T-based fluorometric assay relative to control; type: functional
[15] = target: T1, Acetylcholinesterase; experiment: Inhibition of Electrophorus electricus AChE using acetylthiocholine iodide as substrate measured after 15 mins by Ellman's method
[16] = target: T4, Amine oxidase [flavin-containing] A (Homo sapiens, UniProt P21397); experiment: Inhibition of recombinant human MAO-A expressed in baculovirus infected BTI insect cells at 10 uM using kynuramine as substrate incubated for 30 mins by fluorescence assay relative to control; conditions: 0.5 h
T4 sequence (P21397 whole entry): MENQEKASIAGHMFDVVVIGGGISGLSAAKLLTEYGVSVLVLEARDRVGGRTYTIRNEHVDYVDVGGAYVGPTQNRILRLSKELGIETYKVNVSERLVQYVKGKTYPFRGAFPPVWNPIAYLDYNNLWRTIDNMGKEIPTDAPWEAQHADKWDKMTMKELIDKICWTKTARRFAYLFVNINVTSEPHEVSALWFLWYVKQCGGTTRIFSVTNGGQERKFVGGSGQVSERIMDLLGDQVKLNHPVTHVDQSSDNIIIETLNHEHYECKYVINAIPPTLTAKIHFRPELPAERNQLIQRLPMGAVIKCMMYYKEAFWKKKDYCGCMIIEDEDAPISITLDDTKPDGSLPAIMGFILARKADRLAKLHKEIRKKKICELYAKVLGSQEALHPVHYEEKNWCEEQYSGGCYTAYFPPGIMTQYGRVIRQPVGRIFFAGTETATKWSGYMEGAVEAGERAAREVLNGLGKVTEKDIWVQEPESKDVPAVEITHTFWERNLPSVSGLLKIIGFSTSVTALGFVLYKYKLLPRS

[17] = Metal chelating activity assessed as mole fraction of compound required to show 2:1 stoichiometry for Cu2+-compound complex at 37.5 uM after 30 mins by UV-vis spectrophotometric method; type: functional
[18] = Metal chelating activity assessed as compound-Fe2+ complex formation at 37.5 uM in presence of FeSO4 after 30 mins by UV-visible spectrophotometric analysis; type: functional
[19] = target: butyrylcholinesterase (BuChE) (Rattus norvegicus, UniProt Q9JKC1); experiment: Inhibition of BuChE in rat serum at 50 uM using butyrylthiocholine as substrate measured after 15 mins by Ellman's method relative to control; conditions: probe butyrylthiocholine
Chain of butyrylcholinesterase (BuChE) (Q9JKC1 whole entry): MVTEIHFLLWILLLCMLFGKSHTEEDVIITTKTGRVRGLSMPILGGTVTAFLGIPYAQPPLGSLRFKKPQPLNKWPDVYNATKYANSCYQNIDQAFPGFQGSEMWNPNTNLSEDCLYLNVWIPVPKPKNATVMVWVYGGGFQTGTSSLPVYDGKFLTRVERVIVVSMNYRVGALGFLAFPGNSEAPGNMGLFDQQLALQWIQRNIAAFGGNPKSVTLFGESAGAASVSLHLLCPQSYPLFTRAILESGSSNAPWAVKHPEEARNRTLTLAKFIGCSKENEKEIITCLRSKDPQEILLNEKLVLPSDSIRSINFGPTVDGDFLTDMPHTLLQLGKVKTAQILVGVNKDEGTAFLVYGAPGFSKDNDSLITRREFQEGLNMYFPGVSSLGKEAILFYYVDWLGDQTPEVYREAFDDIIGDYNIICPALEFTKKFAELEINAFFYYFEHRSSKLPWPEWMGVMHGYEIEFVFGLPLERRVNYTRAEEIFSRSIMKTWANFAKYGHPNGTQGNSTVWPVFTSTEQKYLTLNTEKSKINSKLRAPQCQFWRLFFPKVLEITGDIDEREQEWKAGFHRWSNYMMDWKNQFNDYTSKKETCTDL

Compound: COc1cc2c(cc1OC)C(=O)/C(=C/c1ccc(CN3CCCCC3)c(O)c1)O2
- Ki [1]: 12 nM
- Activity [2]: Active
- Activity [3]: inactive
- Activity [4]: 1.66 equiv
- Papp at 18 h, 100 ug/ml [5]: 13.5 ×10⁻⁶ cm/s
- Activity [6]: Non-Toxic
- Activity [7]: Active
- Activity [8]: Active
- inhibition at 10 µM [9]: 32%
- Activity [10]: Active
- inhibition [11]: 58.1%
- IC50 [12]: 8.78 nM
- IC50 [13]: 37.1 nM
- inhibition [14]: 45.1%
- IC50 [15]: 21.2 nM
- inhibition at 10 µM [16]: 15.3%
- Activity [17]: 0.5 molar ratio
- Activity [18]: Active
- inhibition at 0.25 h, 50 µM [19]: 12.9%
